# US20070270461A1, “Fungicide” (Valent BioSciences Corporation, priority 2006, published 2007)
# What was measured:
# Botrytis cinerea [1] = assay: Detached bean leaf bioassay, fungal control; type: in vivo; settings: 200 ppm on detached bean leaf; 100 minus percent necrotic area, three days after inoculation
# Experimental: Compound solution: Compound solutions were prepared by diluting compound stock solutions (1.0% w/v compound in DMSO) to 200 ppm with 0.01% w/v Triton X-100. Spore solution preparation: Botrytis cinerea spores were taken from 6-week-old cultures grown at 22 C on full strength potato dextrous agar (PDA) plates and harvested in 1:16 frozen orange juice concentrate:water. Botrytis cinerea spore solutions were prepared by diluting spore cultures to 5×10^4 spores/mL with 1:16 frozen orange juice concentrate:water. Plant material: Middle trifoliate leaves of greenhouse grown Phaseolus vulgaris (Bush bean cv. Blue Lake 274) were excised and placed on a plastic grid above a tray containing moist towels. Treatment method: One half of the adaxial surface of the leaf was treated with the compound solution (100 :L) using a 3 cm Bacti Cell Spreader. A blank consisted of 0.01% w/v Triton X-100. A commercial fungicide control (200 ppm diluted with water) consisted of Scala. […] Fungal control rating: Three days after inoculation with Botrytis, the percent necrotic area under the inoculation droplet was determined. Since the areas under the blank (0.01% w/v Triton X-100) were 100% infected, fungal control was expressed as 100 minus the percent necrotic area, and thus 0% infected is 100% fungal control (n=3 leaves/compound, 5 inoculation droplets/leaf, Table 2).
# Pythium aphanidermatum = assay: Contact evaluation (microtiter plate); type: cell-based
# Experimental: (§1) Compound solution: Contact evaluations were conducted to determine the anti-fungal activity of each compound against Botrytis cinerea, Sclerotinia sclerotiorum, Pythium aphanidermatum, Rhizoctonia solani, Cercospora arachidicola, Mycosphaerella fijiensis, and Monilinia laxa. Five milligrams of each compound were dissolved in 0.5 milliliter of DMSO for a compound stock solution of 1.0% w/v. Compound stock solutions were serial diluted with DMSO to 20, 10, and 2 ppm final well concentration.
# (§2) Fungi preparation: Botrytis cinerea spores were taken from 6-week-old cultures grown at 22 C on full strength potato dextrous agar (PDA) plates. Sclerotinia sclerotiorum, Pythium aphanidermatum, Rhizoctonia solani, and Monilinia laxa mycelia were taken from 4- to 10-day-old shake flask cultures grown at room temperature on full strength potato dextrous broth (PDB). Cercospora arachidicola mycelia were taken from 10- to 14-day-old shake flask cultures grown at room temperature on a full strength PDB amended with peanut oil. Mycosphaerella fijiensis mycelia were taken from 10- to 14-day-old shake flask cultures grown at room temperature on V8 juice broth. Sclerotinia sclerotiorum, Pythium aphanidermatum, Rhizoctonia solani, Cercospora arachidicola, and Mycosphaerella fijiensis mycelia (0.4 g mycelia) were blended for 45 seconds in 20 mL sterile de-ionized water. Monilinia laxa mycelia (1 g mycelia) was blended for 45 seconds in 30 mL of sterile de-ionized water. Botrytis cinerea spores were diluted with quarter strength PDB to 1×10^5 spores/mL final well concentration. All mycelia were diluted in water (1:5 mycelia:water) before distributing into the wells.
# (§3) Microtiter plate preparation: Compound solution (10 :L), quarter strength PDB (900 :L) and fungi preparation (100 :L) were sequentially distributed into 48-well microtiter plates (n=3 replications/compound/rate). A blank consisted of quarter strength PDB and fungi preparation. Commercial fungicide controls (100 ppm diluted with water) consisted of Scala for Botrytis cinerea, Dithane F-45 for Mycosphaerella fijiensis, and Benlate for Sclerotinia sclerotiorum, Pythium aphanidermatum, Rhizoctonia solani, Cercospora arachidicola, and Monilinia laxa. Plates were shaken in a circular rotator at room temperature for 20 minutes, then incubated at 25 C for 24 to 72 hours, depending on the pathogen.
# (§4) Fungal control ratings: Fungal growth in wells containing the compounds were compared to the positive control and fungal inhibition was rated as full, partial, or none. Final readings were the average of the three wells (Table 1).
# Sclerotinia sclerotiorum = assay: Contact evaluation (microtiter plate); type: cell-based; settings: Sclerotinia sclerotionum
# Experimental: as §1, §2, §3, §4
# Monilinia laxa = assay: Contact evaluation (microtiter plate); type: cell-based
# Experimental: as §1, §2, §3, §4
# Botrytis cinerea [2] = assay: Contact evaluation (microtiter plate); type: cell-based
# Experimental: as §1, §2, §3, §4
# Cercospora arachidicola = assay: Contact evaluation (microtiter plate); type: cell-based
# Experimental: as §1, §2, §3, §4
# Mycosphaerella fijiensis = assay: Contact evaluation (microtiter plate); type: cell-based
# Experimental: as §1, §2, §3, §4
# Rhizoctonia solani = assay: Contact evaluation (microtiter plate); type: cell-based; settings: Rhizoctinia solani
# Experimental: as §1, §2, §3, §4
# [3] = test system: Phaseolus vulgaris (Bush bean cv. Blue Lake 274) leaves; assay: Detached bean leaf bioassay, phytotoxicity rating; type: in vivo; settings: 200 ppm on detached bean leaf; rated no, slight, moderate or excessive phytotoxicity
# Experimental: Compound solution: Compound solutions were prepared by diluting compound stock solutions (1.0% w/v compound in DMSO) to 200 ppm with 0.01% w/v Triton X-100. Plant material: Middle trifoliate leaves of greenhouse grown Phaseolus vulgaris (Bush bean cv. Blue Lake 274) were excised and placed on a plastic grid above a tray containing moist towels. Treatment method: One half of the adaxial surface of the leaf was treated with the compound solution (100 :L) using a 3 cm Bacti Cell Spreader. A blank consisted of 0.01% w/v Triton X-100. A commercial fungicide control (200 ppm diluted with water) consisted of Scala. After the solutions dried, the trays containing the leaves were covered and held one day in a growth chamber (22 C). The adaxial surfaces of the leaves were then inoculated with 5-60 :L droplets of Botrytis cinerea spore solution. Phytotoxicity ratings: Phytotoxicity was rated as 0=no phytotoxicity, 1=slight phytotoxicity, 2=moderate phytotoxicity, or 3=excessive phytotoxicity (Table 2).
smiles,measurement,setting,value
"OCCOc1c(Br)cc(Br)c2cccnc12 [Example 1, 5,7-dibromo-8-(2-hydroxyethoxy) quinoline]",Botrytis cinerea control (200 ppm),Botrytis cinerea [1],100%
same,melting point,,128 to 131 °C
same,"Control of fungi (full, partial, none)",Pythium aphanidermatum; fungicide rate 2 ppm,Full
same,"Control of fungi (full, partial, none)",Pythium aphanidermatum; fungicide rate 10 ppm,Full
same,"Control of fungi (full, partial, none)",Pythium aphanidermatum; fungicide rate 20 ppm,Full
same,"Control of fungi (full, partial, none)",Sclerotinia sclerotiorum; fungicide rate 2 ppm,Full
same,"Control of fungi (full, partial, none)",Sclerotinia sclerotiorum; fungicide rate 10 ppm,Full
same,"Control of fungi (full, partial, none)",Sclerotinia sclerotiorum; fungicide rate 20 ppm,Full
same,"Control of fungi (full, partial, none)",Monilinia laxa; fungicide rate 2 ppm,Full
same,"Control of fungi (full, partial, none)",Monilinia laxa; fungicide rate 10 ppm,Full
same,"Control of fungi (full, partial, none)",Monilinia laxa; fungicide rate 20 ppm,Full
same,"Control of fungi (full, partial, none)",Botrytis cinerea [2]; fungicide rate 2 ppm,Partial
same,"Control of fungi (full, partial, none)",Botrytis cinerea [2]; fungicide rate 10 ppm,Full
same,"Control of fungi (full, partial, none)",Botrytis cinerea [2]; fungicide rate 20 ppm,Full
same,"Control of fungi (full, partial, none)",Cercospora arachidicola; fungicide rate 2 ppm,None
same,"Control of fungi (full, partial, none)",Cercospora arachidicola; fungicide rate 10 ppm,Full
same,"Control of fungi (full, partial, none)",Cercospora arachidicola; fungicide rate 20 ppm,Full
same,"Control of fungi (full, partial, none)",Mycosphaerella fijiensis; fungicide rate 2 ppm,Full
same,"Control of fungi (full, partial, none)",Mycosphaerella fijiensis; fungicide rate 10 ppm,Full
same,"Control of fungi (full, partial, none)",Mycosphaerella fijiensis; fungicide rate 20 ppm,Full
same,"Control of fungi (full, partial, none)",Rhizoctonia solani; fungicide rate 2 ppm,Full
same,"Control of fungi (full, partial, none)",Rhizoctonia solani; fungicide rate 10 ppm,Full
same,"Control of fungi (full, partial, none)",Rhizoctonia solani; fungicide rate 20 ppm,Full
same,Phytotoxity (200 ppm),[3],Slight
